Measured values as given in publication PMC8840081, “Phenylalanine-Based AMPA Receptor Antagonist as the Anticonvulsant Agent with Neuroprotective Activity—In Vitro and In Vivo Studies” (Molecules, 2022).
pIC50, pKi: −log10 of the molar value.

Key:
[1] = ferric reducing antioxidant power (FRAP) assay; conditions: % of ascorbic acid activity; compounds and AA at 1 mM
Procedure: The total antioxidant potential of aryl-substituted phenylalanine derivatives was determined using FRAP assay. The FRAP reagent was prepared first by mixing acetate buffer (300 mM, pH 3.6), a solution of 10 mM TPTZ (2,4,6-tripyridyl-s-triazine, Sigma-Aldrich, Inc., St. Louis, MO, USA) in 40 mM HCl and 20 mM of iron (III) chloride hexahydrate (FeCl3 × 6H2O, Chempur, Piekary Śląskie, Poland) at 10:1:1 (v/v/v). The FRAP reagent (190 μL) and 1 mM of tested compound (10 μL) was added next to each well, mixed and incubated for 30 min. The absorbance was measured using a microplate reader EnSpire (PerkinElmer, Waltham, MA USA) at 593 nm. AA (1 mM, AMARA, Kraków, Poland) was used as the reference antioxidant. The results were expressed as % of ascorbic acid activity (%AAA). Analyses were performed in triplicate. • ORAC-FL

native AMPA receptors = conditions: cited from earlier work; for pKi / pIC50: native AMPA receptors, rat brain membranes, mean of three experiments; for pKi: read-out: [3H]AMPA Ki; for pIC50: read-out: [3H]AMPA IC50 (footnote 4: IC50 values)
[2] = oxygen radical absorbance capacity fluorescent (ORAC-FL) assay; conditions: Trolox equivalent, calculated at 5 µM of compounds and Trolox
Procedure: The ORAC-FL was performed according to procedure described in the literature. The reagents used in this assay, TX, fluorescein and 2,2′-azobis(2-amidinopropane) dihydrochloride (AAPH), were purchased from Sigma-Aldrich, Inc., St. Louis, MO, USA. The prepared ORAC-FL reagent consisted of 0.3 μM of fluorescein and 100 µM of AAPH dissolved in PBS buffer. The compounds and the reference antioxidant TX were tested at the concentration 2.5 µM and the results were compared to the blank in which no antioxidant was present. The assays were performed in black 96-well plates. The fluorescence readings were taken by a microplate reader EnSpire (PerkinElmer, Waltham, MA, USA) every minute for a duration of 240 min. The excitation wavelength was 485 nm and the emission wavelength was 520 nm. The area under the fluorescence decay curve (AUC) was calculated next by GraphPad Prism™ software (version 5.01, San Diego, CA, USA). All measurements were performed in triplicate. The TX equivalent (TE) was calculated next using the following Equation (1):TE = [(AUCsample − AUCblank)/(AUCTX − AUCblank)] × [CTX/Csample](1)

[3] = tested on: SH-SY5Y neuroblastoma cells; assay: neuroprotection against 6-OHDA-induced LDH release; assay type: cell-based, human; conditions: compound 50 µM
Procedure: (§1) All cell culture protocols and assay conditions were applied as we reported previously. SH-SY5Y (ATCC® CRL-2266™) cell line was purchased from ATCC (Manassas, VA, USA). IMR-32 (ATCC® CCL-127™) cell line was kindly provided by the Department of Oncogenomics, Academisch Medisch Centrum, Amsterdam, Holland. Before each test SH-SY5Y or IMR-32 cells were seeded in 96-well plates with transparent bottom at a concentration of 2.5 × 10^4 cells/well in 100 μL of respective cell culture medium and cultured for 24 h to reach 70% confluence. • Cell Viability
(§2) CytoTox-ONE™ Homogeneous Membrane Integrity Assay, which based on the LDH release, was purchased from Promega (Madison, WI, USA). SH-SY5Y or IMR-32 cells were seeded in 96-well white plates with transparent bottom. For neuroprotective studies, the cells were preincubated first for 1 h with compound 1, 8 or reference antioxidants AA, TX (all at the concentration of 50 μM) and next the neurotoxin 6-OHDA (Sigma-Aldrich, Inc., St. Louis, MO, USA) was added at final concentration of 50 μM (SH-SY5Y assay) or 200 µM (IMR-32 assay). After 24 h of incubation, the CytoTox-ONE™ was added to each well and the cells were incubated next for 10 min at room temperature. The fluorescence was measured using a microplate reader EnSpire (PerkinElmer, Waltham, MA, USA) with an excitation wavelength of 560 nm and an emission wavelength of 590 nm. All measurements were performed in triplicate and results are shown as mean ± SD. The similar studies were also performed with SH-SY5Y cells injured by 100 μM of 6-OHDA (Figure S1, Supporting Materials). • ROS Assay

[4] = tested on: IMR-32 neuroblastoma cells; assay: neuroprotection against 6-OHDA-induced LDH release; assay type: cell-based, human; conditions: IMR-32, compound 50 µM, 1 h pretreatment, 200 µM 6-OHDA, 24 h
Procedure: as §1, §2

[5] = 1 h pretreatment, 50 µM 6-OHDA, 24 h

Structure (SMILES) | FRAP (%AAA) [1] [%AAA] | pKi (native AMPA receptors) | ORAC (TE) [2] [TE] | pIC50 (native AMPA receptors) | 6-OHDA-induced release of LDH (neuroprotection) ([3]; 100 µM 6-OHDA) | 6-OHDA-induced release of LDH (neuroprotection) [3, 5] | 6-OHDA-induced release of LDH (neuroprotection) [4] | selectivity over NMDA and KA receptors (native AMPA receptors)
NC(Cc1ccc(Cl)c(-c2ccc(O)cc2)c1)C(=O)O (centres unmarked) [Compound 17] | 9.13 | 4.19 | 1.96 | – | – | – | – | –
NC(Cc1cc(Cl)c(Cl)c(-c2cc(O)cc(O)c2)c1)C(=O)O (centres unmarked) [Compound 11] | 28.90 | – | 4.18 | 4.80 | – | – | – | –
NC(Cc1cccc(-c2cccc(O)c2)c1)C(=O)O (centres unmarked) [Compound 19] | 4.94 | – | 1.96 | 5.00 | – | – | – | –
NC(Cc1ccc([N+](=O)[O-])c(-c2ccc(O)cc2)c1)C(=O)O (centres unmarked) [Compound 20] | 4.41 | 4.19 | 1.62 | – | – | – | – | –
NC(Cc1ccc([N+](=O)[O-])c(-c2cccc(O)c2)c1)C(=O)O (centres unmarked) [Compound 10] | 32.04 | 4.68 | 1.43 | – | – | – | – | –
Cc1c(C)c2c(c(C)c1O)CCC(C)(C(=O)O)O2 (centres unmarked) [TX, Trolox, reference compound] | – | – | – | – | neuroprotective effect was not observed | no statistically significant neuroprotective effect | no statistically significant neuroprotective effect | –
Nc1ccc(CC(N)C(=O)O)cc1-c1cccc(O)c1 (centres unmarked) [Compound 6] | 67.35 | 5.04 | 6.09 | – | – | – | – | –
COc1c(Cl)cc(CC(N)C(=O)O)cc1-c1cccc(O)c1 (centres unmarked) [Compound 22] | 2.76 | < 4.00 | 1.38 | – | – | – | – | –
Nc1c(Cl)cc(CC(N)C(=O)O)cc1-c1cccc(O)c1 (centres unmarked) [Compound 14] | 23.80 | 5.00 | 4.75 | – | – | – | – | –
NC(Cc1cc(-c2cccc(O)c2)cc([N+](=O)[O-])c1)C(=O)O (centres unmarked) [Compound 9] | 43.43 | 5.09 | 4.67 | – | – | – | – | –
NC(Cc1cc(-c2cccc(O)c2)c(Cl)c([N+](=O)[O-])c1)C(=O)O (centres unmarked) [Compound 18] | 6.29 | 5.51 | 1.34 | – | – | – | – | high selectivity
NC(Cc1ccc(Cl)c(-c2cccc(O)c2)c1)C(=O)O (centres unmarked) [Compound 13] | 24.08 | 5.04 | 2.86 | – | – | – | – | –
Nc1c(-c2cccc(O)c2)cc(CC(N)C(=O)O)cc1[N+](=O)[O-] (centres unmarked) [Compound 12] | 24.93 | 4.85 | 4.27 | – | – | – | – | –
NC(Cc1cc(-c2ccc(O)cc2)cc([N+](=O)[O-])c1)C(=O)O (centres unmarked) [Compound 5] | 96.32 | 4.68 | 4.32 | – | – | – | – | –
NC(Cc1cc(Cl)c(Cl)c(-c2ccccc2O)c1)C(=O)O (centres unmarked) [Compound 16] | 10.32 | – | 1.54 | 4.07 | – | – | – | –
NC(Cc1cc(Cl)c(Cl)c(-c2ccc(O)c(O)c2)c1)C(=O)O (centres unmarked) [Compound 4] | 177.23 | – | 4.02 | 4.92 | – | – | – | –
NC(Cc1cc(Cl)cc(-c2ccc(O)cc2)c1)C(=O)O (centres unmarked) [Compound 7] | 49.39 | 4.34 | 3.29 | – | – | – | – | –
NC(Cc1cc(-c2cncc(O)c2)c(Cl)c([N+](=O)[O-])c1)C(=O)O (centres unmarked) [Compound 2] | 691.21 | 5.70 | 3.15 | – | – | – | – | high selectivity
NC(Cc1cc(Cl)c(Cl)c(-c2ccc(O)cc2)c1)C(=O)O (centres unmarked) [Compound 15] | 13.70 | – | 1.45 | 4.48 | – | – | – | –
NC(Cc1cc(-c2ccc(O)cc2)c(Cl)c([N+](=O)[O-])c1)C(=O)O (centres unmarked) [Compound 21] | 2.76 | 4.64 | 2.56 | – | – | – | – | –
NC(Cc1cc(Cl)c(O)c(-c2cccc(O)c2)c1)C(=O)O (centres unmarked) [Compound 3] | 311.56 | 5.10 | 4.61 | – | – | – | – | –
O=C1O[C@H]([C@@H](O)CO)C(O)=C1O [AA, ascorbic acid, reference compound] | – | – | – | – | neuroprotective effect was not observed | no statistically significant neuroprotective effect | no statistically significant neuroprotective effect | –
